Several values for one entry are separate records, joined by “and”; a condition that tells them apart may be missing. Equal values may be shown once. Entries after “also recorded” stand apart in the source; their conditions may differ.
What was measured:
[1] = molecular target: FGFR1c on PC-3 cells (human) (UniProt P11362); experiment: cell-based or functional assay
Daudi cells = experiment: Whole cell proliferation assay; format: cell-based, human; settings: for direct effect of kinase inhibitor on Daudi whole cell number: FBS-deficient media, 50 μM LY294002, 20 μM PD98059, or 1 μM SB203580
Experimental: For proliferation assays using Daudi cells, cells were collected from 75 cm^2 flasks, washed three times with FBS-deficient media or proliferation media, and resuspended into 10 ml of the same media. Cells were diluted to 1×10^5 cells/ml based on the reading of an electronic cell counter, and plated 1 ml/well in 24-well plates. Wells were treated with PBS, heparin, A5, or A5-heparin conjugate in 10 μl volumes, and incubated for 72 hours at 37° C., 5% CO2. A5-heparin conjugates were additionally supplemented with 50 μM LY294002, 20 μM PD98059, or 1 μM SB203580, 50 mM sodium chlorate, or 10 ng/ml FGF2, as appropriate. Whole cell number was converted to a percent growth relative to PBS treatment. Proliferation assays on NFS-1.0 C-1 and J.CaM1.6 cells were performed as described for Daudi cells.
To probe the role of sulfation patterns and fine structure in inducing the effects of A5-heparin conjugates, heparin was partially digested with heparinases prior to conjugation. Heparin was diluted to 20 μg/ml in PBS and incubated with 5 mU/ml hepI or hepIII or an equivalent volume of PBS for 30 minutes. Digestion was confirmed by UV spectroscopy at 232 nm. Digested heparin was subsequently conjugated with A5 as described. A5 binding to the heparin fragments was confirmed using an Azure A competition assay as previously described. Daudi cells, plated as described at 1×10^5 cells/ml in 24-well plates, 1 ml/well, were treated with conjugates at a heparin concentration of 1 μg/ml or an equivalent volume of PBS. After incubating for 72 hours at 37° C., 5% CO2, the resultant whole cell count was determined by electronic cell counter, and data were converted to a percent growth relative to Daudi treated with PBS alone.
To examine the effects of protamine sulfate and heparinases on Daudi growth, cells were collected from 75 cm^2 flasks, pelletted, and resuspended into 10 ml of propagation media. Cells were diluted to 1×10^5 cells/ml based on the reading of an electronic cell counter, and plated 1 ml/well in 24-well plates. Protamine sulfate was added between 1 and 100,000 ng/ml. HepI and hepIII were added between 0.5 and 500 μU/ml for 24, 48, or 72 hours. Whole cell counts from heparinase assays were converted to percent reduction in whole cell number relative to untreated.

PC-3 cells = experiment: PC-3 proliferation assay (whole cell number); format: cell-based, human; settings: for effect of kinase inhibitor on heparin-mediated growth inhibition: 50 μM LY294002, 20 μM PD98059, 20 μM U0126, 1 μM SB203580, heparin 500 ng/ml
Experimental: PC-3 cells were grown until confluence in 75 cm^2 flasks. Each flask was washed with 20 ml PBS, and treated with 3 ml trypsin-EDTA at 37° C. for 3-5 minutes, until cells detached. Cells were centrifuged for 3 min at 195×g. The supernatant was aspirated, and the cells were resuspended in 10 ml media. The cell density was measured using an electronic cell counter, and the suspension was diluted to 50,000 cells/ml. The suspension was plated 1 ml/well into 24-well tissue culture plates. After a 24 hour incubation in a 5% CO2, 37° C. humidified incubator, the media was aspirated, the wells were washed with serum free media, and the cells were supplemented with media containing 0.1% FBS and incubated for 24 hours. Cells were sequentially treated with antibodies, kinase inhibitors, heparin, and FGF2. Antibodies to FGF2, FGFR1, or FGFR3 were added to yield a final dilution of 1:100. Kinase inhibitors were added sufficient to yield final concentrations of 50 μM LY294002, 20 μM PD98059, 1 μM SB203580, and 20 μM U0126. Heparin was added at 500 ng/ml unless otherwise noted. To produce heparin digests, heparin was treated with PBS, hepI, or hepIII for 30 minutes, and boiled for 30 minutes. prior to addition to cells. Digestion was verified by UV spectroscopy at 232 nm. FGF2 was added at 100 ng/ml unless otherwise specified. Cells were then incubated for 72 hours. Wells were then washed twice with PBS and treated with 0.5 ml trypsin-EDTA/well and incubated for 10 minutes at 37° C. Whole cell number was determined using an electronic cell counter. Data were averaged over three experiments, each consisting of four wells per condition.
PC-3 cells were grown until confluence in 75 cm^2 flasks. Each flask was washed with 20 ml PBS, and treated with 3 ml trypsin-EDTA at 37° C. for 3-5 minutes, until cells detached. Cells were centrifuged for 3 minutes at 195×g, the supernatant was aspirated, and the cells were resuspended in 10 ml media. The cell suspension was diluted to 50,000 cells/ml based on the readings of an electronic cell counter. The suspension was plated 1 ml/well into 24-well tissue culture plates. After a 24 hour incubation in a 5% CO2, 37° C. humidified incubator, the cells were washed with serum free media, supplemented with media containing 0.1% FBS, and incubated for 24 hours. Cells were treated with heparin, HS or FGF2 as appropriate. Heparin was added at 500 ng/ml unless otherwise noted. FGF2 was added at 100 ng/ml unless otherwise specified. Cells were then incubated for 72 hours. Wells were then washed twice with PBS and treated with 0.5 ml trypsin-EDTA/well and incubated for 10 minutes at 37° C. Whole cell number was determined using an electronic cell counter. Data were averaged over three experiments, each consisting of four wells per condition.
For antibody and kinase inhibitor experiments, antibodies and kinase inhibitors were added prior to HSGAGs or FGF2. […]
To produce heparin digests, heparin was treated with PBS, heparinase I (hepI), or hepIII for 30 minutes, and boiled for 30 prior to addition to cells. Digestion was verified and quantified by UV spectroscopy at 232 nm (27). […]
A preliminary screen was performed on PC-3 cells by proliferation assay using the nine polymers described at polymer:heparin (w/w) ratios of 10:1, 20:1, 30:1, 40:1, and 60:1. The three best formulations (polymer and ratio) were selected and analyzed further. […] In vitro assessment of polymer activity was measured by proliferation assay with a heparin concentration of 1 μg/ml. […]

B16-F10 cells = experiment: Whole cell proliferation assay; format: cell-based, mouse; settings: 10 ng/ml FGF2
Experimental: Adhesion cells (B16-F10, B16-BL6, SMCs, BAECs, NIH 3T3, SK-ES-1, Panc-1, and SW-1088) were seeded in 24-well plates at 1 ml/well as well as in 6-well plates at 3 ml/well, both at a density of 5×10^4 cells/ml. The plates were incubated for 24 hours at 37° C., 5% CO2. The cells were then washed with PBS and supplemented with media as appropriate. Cells were treated with PBS, heparin, polymer, or polymer-heparin conjugate, in 10 μl quantities at appropriate concentrations. Cells were incubated at 37° C., 5% CO2 for 72 hours, after which, each well was treated with 500 μl (24 well plates) or 1 ml (6 well plates) trypsin-EDTA for 5-15 minutes at room temperature, after which 400 μl was used to count the cell number with an electronic cell counter. […] Panc-1 cells were only tested in 10% FBS. Effects of conjugate were normalized to co-treatment without conjugate.
B16-F10 cells were grown until confluent, washed with PBS, treated with 3 ml trypsin-EDTA per 75 cm^2 tissue culture flask at 37° C. for 3-5 min, pelleted, and resuspended in FBS-deficient media. Cell concentration was determined with an electronic cell counter. […] Cells were treated with PBS, heparin, A5, or A5-heparin conjugate, added in 10 μl quantities, to yield a polymer concentration of 20 μg/ml and a heparin concentration of 1 μg/ml. […]

Erk1, Erk2 in PC-3 cells = experiment: Whole cell ELISA; format: cell-based, human; settings: 10 ng/ml FGF2 or 500 ng/ml heparin; 5, 15, or 60 minutes
Experimental: (§1) ELISA was performed on whole cells to determine a quantifiable relative level of kinase activity. PC-3 cells were grown until confluence in 75 cm^2 flasks. Each flask was washed with 20 ml PBS, and treated with 3 ml trypsin-EDTA at 37° C. for 3-5 minutes, until cells detached. Cells were centrifuged for 3 min at 195×g. The supernatant was aspirated, and the cells were resuspended in 10 ml media. The cell density was measured using an electronic cell counter, and the suspension was diluted to 50,000 cells/ml. 100 mm dishes were supplemented with 10 ml cell suspension per dish. After a 24 hour incubation the media was aspirated, the dishes washed with serum free media, and the cells supplemented with media containing 0.1% FBS and incubated for 24 hours. Dishes were treated with PBS, 10 ng/ml FGF2, or 500 ng/ml heparin for 5, 15, or 60 minutes. Media was then aspirated, the cells were washed with 10 ml PBS, and each dish was treated with 5 ml Trizol reagent. Cell extract was added to 96-well plates previously incubated for 1 hour with primary antibodies to Erk1, Erk2 or phospho-Erk1/2. […] The reaction was quenched with 1 M HCl, and the plates were analyzed using a UV plate reader at 450 nm. Data were quantified by comparing to a standardized curve with varying concentrations of untreated cells.

[2] = tested on: phospho-Erk1/2 in PC-3 cells; experiment: Whole cell ELISA; format: cell-based, human; settings: 10 ng/ml FGF2; 5, 15, or 60 minutes
Experimental: as §1

Chain of UniProt P11362 (P11362 22-822): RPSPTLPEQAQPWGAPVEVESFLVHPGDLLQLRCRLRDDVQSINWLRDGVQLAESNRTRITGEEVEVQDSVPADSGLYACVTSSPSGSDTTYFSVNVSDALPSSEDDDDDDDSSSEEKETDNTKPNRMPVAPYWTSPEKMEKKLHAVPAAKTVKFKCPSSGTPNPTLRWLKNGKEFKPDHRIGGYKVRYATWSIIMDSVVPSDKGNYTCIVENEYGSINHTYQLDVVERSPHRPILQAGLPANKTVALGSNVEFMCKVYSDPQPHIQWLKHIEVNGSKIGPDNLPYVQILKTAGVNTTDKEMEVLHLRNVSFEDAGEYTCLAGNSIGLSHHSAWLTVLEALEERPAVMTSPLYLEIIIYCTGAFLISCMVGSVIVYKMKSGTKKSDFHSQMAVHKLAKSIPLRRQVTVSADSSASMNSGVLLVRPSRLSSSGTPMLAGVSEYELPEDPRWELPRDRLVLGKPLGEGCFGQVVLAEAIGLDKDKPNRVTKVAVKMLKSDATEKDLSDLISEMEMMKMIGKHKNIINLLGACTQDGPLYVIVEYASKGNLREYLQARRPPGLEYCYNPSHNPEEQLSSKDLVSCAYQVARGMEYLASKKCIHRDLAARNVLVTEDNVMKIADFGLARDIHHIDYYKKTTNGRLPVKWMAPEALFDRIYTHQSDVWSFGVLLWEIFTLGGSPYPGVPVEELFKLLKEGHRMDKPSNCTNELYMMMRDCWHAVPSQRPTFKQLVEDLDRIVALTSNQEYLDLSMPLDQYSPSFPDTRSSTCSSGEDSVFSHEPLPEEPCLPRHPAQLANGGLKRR

Compound: Recombinant human FGF2 (from UniProt P09038 135-288) (ligand)
- increase in proliferation of PC-3 cells at 100 ng/ml FGF2 [1]: 15%
- upregulation of phospho-Erk1/2 in PC-3 cells (whole cell ELISA) [1]: 2 to 3 fold

Compound: protamine sulfate
- reduction in whole cell number (Daudi cells; protamine sulfate 1×10^5 ng/ml, media with 10% FBS, three days): 12.9±2.8%
- effect on whole cell number (Daudi cells; protamine sulfate concentrations less than 1×10^5 ng/ml, 10% FBS): no effect

Compound: C[S+]([O-])c1ccc(-c2nc(-c3ccncc3)c(-c3ccc(F)cc3)[nH]2)cc1 (stereo not drawn) [SB203580]
- effect of kinase inhibitor on heparin-mediated growth inhibition (PC-3 cells): did not eliminate the effect of heparin; also recorded: had no effect
- direct effect of kinase inhibitor on Daudi whole cell number (Daudi cells): caused a significant reduction

Compound: N#CC(=C(/N)Sc1ccccc1N)/C(C#N)=C(/N)Sc1ccccc1N [U0126]
- effect of kinase inhibitor on heparin-mediated growth inhibition (PC-3 cells): eliminate the ability of heparin to inhibit PC-3 growth; also recorded: prevented heparin-mediated growth inhibition

Compound: FGF2: Recombinant human FGF2
- inhibition of cell number by FGF2 alone (B16-F10 cells): 26.28±7.23%
- increase in proliferation (whole cell number) (PC-3 cells; 100 ng/ml FGF2): ~15% and 15.6±3.1%
- proliferation (PC-3 cells; FGF2 doses of 50 ng/ml and lower): did not promote significant proliferation
- Erk1 or Erk2 levels (Erk1, Erk2 in PC-3 cells): no significant effect
- upregulation of phospho-Erk1/2 [2]: 2-3 fold
- effect on Daudi proliferation (Daudi cells; 10 ng/ml FGF2): did not affect Daudi proliferation

Compound: COc1cccc(-c2cc(=O)c3ccccc3o2)c1N [PD98059]
- effect of kinase inhibitor on heparin-mediated growth inhibition (PC-3 cells): eliminate the ability of heparin to inhibit PC-3 growth; also recorded: prevented heparin-mediated growth inhibition
- direct effect of kinase inhibitor on Daudi whole cell number (Daudi cells): neither inhibition of PI3K with LY294002 (p>0.39) nor inhibition of Erk and Mek with PD98059 (p>0.64) had a direct effect
